# Target: T1, human IKK-2 (rhIKK-2 homodimer) (Homo sapiens, UniProt O14920)
# T1 construct: FLAG (DYKDDDDKD) (C); made in house; host or cells: insect cells (baculovirus, pFastBac)
# T1 sequence (O14920 1-756): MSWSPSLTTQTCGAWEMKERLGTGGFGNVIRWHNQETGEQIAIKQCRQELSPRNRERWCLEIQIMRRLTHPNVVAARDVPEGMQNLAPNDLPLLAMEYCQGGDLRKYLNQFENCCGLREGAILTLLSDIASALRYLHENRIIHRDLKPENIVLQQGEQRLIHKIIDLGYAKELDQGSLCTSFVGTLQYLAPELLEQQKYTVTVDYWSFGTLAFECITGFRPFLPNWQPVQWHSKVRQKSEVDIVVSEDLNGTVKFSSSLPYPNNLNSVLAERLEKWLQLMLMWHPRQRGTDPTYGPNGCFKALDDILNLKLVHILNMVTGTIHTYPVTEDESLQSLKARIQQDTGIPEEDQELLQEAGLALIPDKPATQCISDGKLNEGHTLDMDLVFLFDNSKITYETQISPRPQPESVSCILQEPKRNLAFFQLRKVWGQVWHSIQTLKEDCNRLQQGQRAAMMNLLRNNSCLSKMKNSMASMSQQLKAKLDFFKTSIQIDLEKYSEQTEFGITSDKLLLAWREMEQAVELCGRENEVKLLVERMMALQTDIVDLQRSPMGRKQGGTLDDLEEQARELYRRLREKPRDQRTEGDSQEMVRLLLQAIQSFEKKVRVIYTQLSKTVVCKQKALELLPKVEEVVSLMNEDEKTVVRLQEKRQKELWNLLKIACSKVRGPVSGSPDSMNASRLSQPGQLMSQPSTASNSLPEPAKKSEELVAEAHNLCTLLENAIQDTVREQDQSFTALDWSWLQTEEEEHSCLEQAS
# Test: IKK-2 Resin Enzyme Assay (Human IKK-2 Enzyme Assay)
# Format: biochemical
# Conditions: human IKK-2, resin enzyme assay; read-out: IC50 (μM) hIKK-2
# Method in brief: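 C-terminally FLAG-tagged human IKK-2 homodimer, baculovirus-expressed in insect cells and anti-FLAG purified. Reaction mix: 5 μM biotinylated IκBα peptide (Ser32/Ser36 region), 1 μM ATP with [γ-33P]ATP, 2 mM MgCl2, 2 mM MnCl2, 10 mM NaF, 1 mM DTT, 25 mM HEPES pH 7.6. Incubated 30 min at 25 °C; IC50 derived.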
row,IC50,Compound
1,0.378 µM,"NC(=O)Nc1cn(-c2ccc(Br)c(F)c2)nc1C(N)=O [Example 225, 4-[(aminocarbonyl)amino]-1-(4-bromo-3-fluorophenyl)-1H-pyrazole-3-carboxamide]"
2,0.457 µM,"NC(=O)Nc1cn(-c2ccc(-c3cccc(O)c3)cc2F)nc1C(N)=O [Example 247, 4-[(aminocarbonyl)amino]-1-(3-fluoro-3′-hydroxy-1,1′-biphenyl-4-yl)-1H-pyrazole-3-carboxamide]"
